Measured values from patent publication US8092810B2, “Use of polypeptides having antimicrobial activity” (Novozymes A/S, priority 2006, dated 2012).
Converted amounts (≈) assume the structure as drawn. Where two headings read alike, the source gives them in different places.

Tests used:
Experiment in all cases: MIC broth microdilution
Format in all cases: cell-based
[1] = tested on: Staphylococcus epidermidis ATCC 12228; details: Staphylococcus epidermidis, ATCC12228, 24 h
Method: (§1) Briefly, the MIC was determined by microbroth dilution assay in a 96 well plate. 4-5 colonies of each bacterium tested were added to 5 ml of MHB, placed in a 35° C. shaker until the OD 600 nm reached 0.08-0.10. The inoculum was diluted 1:100 and 50 microliters were added to each well which contained 50 microliters of serial two fold dilutions of Lento, vancomycin or ciprofloxacin. Each concentration of antibiotic or Lento was tested in duplicate. The plate was placed at 35° C. overnight. MICs were determined after 24 hours incubation and defined by the well containing the lowest amount of antibiotic with no visible growth.

[2] = tested on: Eschericia coli ATCC 35218; details: 24 h
Method: as §1

[3] = tested on: Enterococcus faecium ATCC 51559; details: ATCC51559; Enterococcus faecium ATCC 51559, Gram +; MHB, 35° C., 24 hours; read-out: MIC
Method: as §1

[4] = tested on: Salmonella typhimurium ATCC 13311; details: Salmonella enterica
Method: as §1

[5] = tested on: Enterococcus faecalis (VRE) ATCC 51299
Method: as §1

[6] = tested on: Staphylococcus aureus (GISA) ATCC 700699
Method: as §1

[7] = tested on: Staphylococcus aureus subsp. aureus (MRSA & GISA) ATCC 700789
Method: as §1

[8] = tested on: Streptococcus pneumoniae (PSRSP) ATCC 700671
Method: as §1

[9] = tested on: Micrococcus luteus ATCC 9341
Method: as §1

[10] = tested on: Corynebacterium jeikeium ATCC 43734; details: Corynebacterium jeikeium, ATCC43734, 24 h
Method: as §1

[11] = tested on: Streptococcus pneumoniae (TCRSP) ATCC 700902
Method: as §1

[12] = tested on: Eschericia coli ATCC 25922
Method: as §1

[13] = tested on: Staphylococus aureus (GISA) ATCC 700787
Method: as §1

[14] = tested on: Staphylococcus aureus ATCC 27734
Method: as §1

[15] = tested on: Shigella dysenteriae ATCC 11835; details: Shigella dysenteriae, ATCC11835, 24 h
Method: as §1

[16] = tested on: Staphylococcus aureus ATCC 29737; details: Staphylococcus aureus, ATCC29737, 24 h
Method: as §1

[17] = tested on: Acinetobacter sp. ATCC 49137
Method: as §1

[18] = tested on: Eschericia coli ATCC 10536
Method: as §1

[19] = tested on: Streptococcus pneumoniae ATCC 49619
Method: as §1

[20] = tested on: Streptococcus pneumoniae ATCC 700676
Method: as §1

[21] = tested on: Staphylococcus aureus subsp. aureus (MRSA) ATCC 700788
Method: as §1

[22] = tested on: Burkholderia cepacia ATCC 25416
[23] = tested on: Stenotrophomas maltophilia ATCC 13637; details: 24 h
Method: as §1

[24] = tested on: Klebsiella pneumoniae ATCC 10031; details: ATCC10031, 24 h
Method: as §1

[25] = tested on: Staphylococcus aureus ATCC 29213; details: Staphylococcus aureus, ATCC29213, 24 h
Method: as §1

[26] = tested on: Staphylococcus aureus (MRSA) ATCC 33591; details: 24 h
Method: as §1

[27] = tested on: Corynebacterium jeikeium ATCC 43216; details: Corynebacterium jeikeium, ATCC43216, 24 h
Method: as §1

[28] = tested on: Bacillus cereus ATCC 4342; details: Bacillus cereus, ATCC4342, 24 h
Method: as §1

[29] = tested on: Pseudomonas aeruginosa ATCC 27853; details: ATCC27853, 24 h
Method: as §1

In the case of `O=C(O)c1cn(C2CC2)c2cc(N3CCNCC3)c(F)cc2c1=O` [Ciprofloxacin], the MIC [1] is reported as 0.0625 µg/mL (≈ 0.189 µM), the MIC [2] is reported as 0.0625 µg/mL (≈ 0.189 µM) and the MIC [3] is reported as over 64 µg/mL. The MIC ([4]; Salmonella typhimurium ATCC 13311, Gram −, MHB, 35° C., 24 hours, read-out: MIC) was 0.0625 µg/mL (≈ 0.189 µM), the MIC ([5]; Enterococcus faecalis (VRE) ATCC 51299, Gram +, MHB, 35° C., 24 hours, read-out: MIC) was 0.5 µg/mL (≈ 1.51 µM) and the MIC ([6]; ATCC700699, Staphylococcus aureus (GISA) ATCC 700699, Gram +, MHB, 35° C., 24 hours, read-out: MIC) was 16 µg/mL (≈ 48.3 µM). It also gave an MIC ([7]; Staphylococcus aureus subsp. aureus (MRSA & GISA) ATCC 700789, Gram +, MHB, 35° C., 24 hours, read-out: MIC) of 16 µg/mL (≈ 48.3 µM), an MIC ([8]; ATCC700671, Streptococcus pneumoniae (PSRSP) ATCC 700671, Gram +, MHB, 35° C., 24 hours, read-out: MIC) of 1 to 2 µg/mL (≈ 3.02 to 6.04 µM) and an MIC ([9]; ATCC9341, Micrococcus luteus ATCC 9341, Gram +, MHB, 35° C., 24 hours, read-out: MIC) of 1 µg/mL (≈ 3.02 µM). The MIC [10] was 0.0625 µg/mL (≈ 0.189 µM), the MIC ([11]; ATCC700902, Streptococcus pneumoniae (TCRSP) ATCC 700902, Gram +, MHB, 35° C., 24 hours, read-out: MIC) was 0.5 to 1 µg/mL (≈ 1.51 to 3.02 µM) and the MIC ([12]; Eschericia coli ATCC 25922, Gram −, MHB, 35° C., 24 hours, read-out: MIC) was 0.0625 µg/mL (≈ 0.189 µM). For the same compound, the MIC ([13]; Staphylococus aureus (GISA) ATCC 700787, Gram +, MHB, 35° C., 24 hours, read-out: MIC) was 16 µg/mL (≈ 48.3 µM), the MIC ([14]; ATCC27734, Staphylococcus aureus ATCC 27734, Gram +, MHB, 35° C., 24 hours, read-out: MIC) was 8 µg/mL (≈ 24.1 µM) and the MIC [15] was 0.0625 µg/mL (≈ 0.189 µM). The MIC [16] was 0.0625 to 0.25 µg/mL (≈ 0.189 to 0.754 µM), the MIC ([17]; ATCC49137, Acinetobacter sp. ATCC 49137, Gram −, MHB, 35° C., 24 hours, read-out: MIC) was 0.0625 µg/mL (≈ 0.189 µM) and the MIC ([18]; Eschericia coli ATCC 10536, Gram −, MHB, 35° C., 24 hours, read-out: MIC) was 0.0625 µg/mL (≈ 0.189 µM). It also gave an MIC ([19]; ATCC49619, Streptococcus pneumoniae ATCC 49619, Gram +, MHB, 35° C., 24 hours, read-out: MIC) of 0.5 µg/mL (≈ 1.51 µM), an MIC ([20]; ATCC700676, Streptococcus pneumoniae ATCC 700676, Gram +, MHB, 35° C., 24 hours, read-out: MIC) of 1 µg/mL (≈ 3.02 µM) and an MIC ([21]; Staphylococcus aureus subsp. aureus (MRSA) ATCC 700788, Gram +, MHB, 35° C., 24 hours, read-out: MIC) of 8 µg/mL (≈ 24.1 µM). It also gave an MIC ([22]; ATCC25416, Burkholderia cepacia ATCC 25416, Gram −, MHB, 35° C., 24 hours, read-out: MIC) of 0.25 µg/mL (≈ 0.754 µM).

`CN[C@H](CC(C)C)C(=O)N[C@H]1C(=O)N[C@@H](CC(N)=O)C(=O)N[C@H]2C(=O)N[C@H]3C(=O)N[C@H](C(=O)N[C@H](C(=O)O)c4cc(O)cc(O)c4-c4cc3ccc4O)[C@H](O)c3ccc(c(Cl)c3)Oc3cc2cc(c3O[C@@H]2O[C@H](CO)[C@@H](O)[C@H](O)[C@H]2O[C@H]2C[C@](C)(N)[C@H](O)[C@H](C)O2)Oc2ccc(cc2Cl)[C@H]1O` [Vancomycin, vancomycin] gave an MIC [23] of 32 µg/mL (≈ 22.1 µM), an MIC [24] of over 64 µg/mL and an MIC [25] of 0.5 µg/mL (≈ 0.345 µM). It also gave an MIC [1] of 1 µg/mL (≈ 0.69 µM), an MIC [2] of over 64 µg/mL and an MIC [26] of 1 µg/mL (≈ 0.69 µM). The MIC [27] was 0.25 µg/mL (≈ 0.173 µM), the MIC ([4]; 24 h) was over 64 µg/mL and the MIC [28] was 1 µg/mL (≈ 0.69 µM). It also gave an MIC ([5]; Enterococcus faecalis, 24 h) of 2 µg/mL (≈ 1.38 µM), an MIC ([6]; Staphylococcus aureus, ATCC700699, 24 h) of 8 µg/mL (≈ 5.52 µM) and an MIC ([7]; Staphylococcus aureus, 24 h) of 2 µg/mL (≈ 1.38 µM). It also gave an MIC ([8]; Streptococcus pneumoniae, ATCC700671, 24 h) of 0.5 µg/mL (≈ 0.345 µM), an MIC ([9]; Micrococcus luteus, ATCC9341, 24 h) of 0.5 µg/mL (≈ 0.345 µM) and an MIC [10] of 0.25 µg/mL (≈ 0.173 µM). For the same compound, the MIC ([11]; Streptococcus pneumoniae, ATCC700902, 24 h) was 0.25 µg/mL (≈ 0.173 µM), the MIC ([12]; 24 h) was over 64 µg/mL and the MIC ([13]; 24 h) was 8 µg/mL (≈ 5.52 µM). For the same compound, the MIC ([14]; Staphylococcus aureus, ATCC27734, 24 h) was 1 µg/mL (≈ 0.69 µM), the MIC [15] was over 64 µg/mL and the MIC [16] was 0.5 µg/mL (≈ 0.345 µM). The MIC ([17]; Acinetobacter, ATCC49137, 24 h) was over 64 µg/mL, the MIC ([18]; 24 h) was over 64 µg/mL and the MIC ([19]; Streptococcus pneumoniae, ATCC49619, 24 h) was 0.5 to 1 µg/mL (≈ 0.345 to 0.69 µM). It also gave an MIC ([20]; Streptococcus pneumoniae, ATCC700676, 24 h) of 0.25 µg/mL (≈ 0.173 µM), an MIC [29] of over 64 µg/mL and an MIC ([21]; Staphylococcus aureus, 24 h) of 2 µg/mL (≈ 1.38 µM). The MIC ([22]; Burkholderia cepacia, ATCC25416, 24 h) was over 64 µg/mL.
